The first assay deals with nuclear factor-kappa B (NF-kB)-inducing kinase (NIK) (Homo sapiens (Human), UniProt Q99558). Briefly: NIK Enzyme Inhibition Assay (Transcreener ADP fluorescence polarization). Format: biochemical. To be noted: purified NIK 0.2-1 nM, 10 uM ATP, Morrison's quadratic equation; read-out: NIK ADP-FP (Ki uM). Here is the method:
NIK Enzyme Inhibition Assay: The ability of the nuclear factor-kappa B (NF-kB)-inducing kinase (NIK) to catalyze the hydrolysis of adenosine-5′-triphosphate (ATP) was monitored using the Transcreener ADP (adenosine-5′-diphosphate) assay (BellBrook Labs). Purified NIK (0.2-1 nM) derived from a baculovirus-infected insect cell expression system was incubated with test compounds for 1-3.5 hours in 50 mM 2-[4-(2-hydroxyethyl)piperazin-1-yl]ethanesulfonic acid buffer (pH 7.2) containing 10 mM MgCl2, 2 mM dithiothreitol, 10 uM ATP, 0.01% Triton X-100, 0.1% gamma-globulins from bovine blood, 1% dimethylsulfoxide (DMSO), 12 ug/mL ADP antibody and 4 nM ADP-AlexaFluor® 633 tracer. Reactions were quenched by the addition of 20 mM 2,2′,2″,2′″-(ethane-1,2-diyldinitrilo)tetraacetic acid and 0.01% Brij 35. The tracer bound to the antibody was displaced by the ADP generated during the NIK reaction, which causes a decrease in fluorescence polarization that was measured by laser excitation at 633 nm with a Fluorescence Correlation Spectroscopy Plus reader (Evotec AG).
Sequence of nuclear factor-kappa B (NF-kB)-inducing kinase (NIK) (Q99558 whole entry): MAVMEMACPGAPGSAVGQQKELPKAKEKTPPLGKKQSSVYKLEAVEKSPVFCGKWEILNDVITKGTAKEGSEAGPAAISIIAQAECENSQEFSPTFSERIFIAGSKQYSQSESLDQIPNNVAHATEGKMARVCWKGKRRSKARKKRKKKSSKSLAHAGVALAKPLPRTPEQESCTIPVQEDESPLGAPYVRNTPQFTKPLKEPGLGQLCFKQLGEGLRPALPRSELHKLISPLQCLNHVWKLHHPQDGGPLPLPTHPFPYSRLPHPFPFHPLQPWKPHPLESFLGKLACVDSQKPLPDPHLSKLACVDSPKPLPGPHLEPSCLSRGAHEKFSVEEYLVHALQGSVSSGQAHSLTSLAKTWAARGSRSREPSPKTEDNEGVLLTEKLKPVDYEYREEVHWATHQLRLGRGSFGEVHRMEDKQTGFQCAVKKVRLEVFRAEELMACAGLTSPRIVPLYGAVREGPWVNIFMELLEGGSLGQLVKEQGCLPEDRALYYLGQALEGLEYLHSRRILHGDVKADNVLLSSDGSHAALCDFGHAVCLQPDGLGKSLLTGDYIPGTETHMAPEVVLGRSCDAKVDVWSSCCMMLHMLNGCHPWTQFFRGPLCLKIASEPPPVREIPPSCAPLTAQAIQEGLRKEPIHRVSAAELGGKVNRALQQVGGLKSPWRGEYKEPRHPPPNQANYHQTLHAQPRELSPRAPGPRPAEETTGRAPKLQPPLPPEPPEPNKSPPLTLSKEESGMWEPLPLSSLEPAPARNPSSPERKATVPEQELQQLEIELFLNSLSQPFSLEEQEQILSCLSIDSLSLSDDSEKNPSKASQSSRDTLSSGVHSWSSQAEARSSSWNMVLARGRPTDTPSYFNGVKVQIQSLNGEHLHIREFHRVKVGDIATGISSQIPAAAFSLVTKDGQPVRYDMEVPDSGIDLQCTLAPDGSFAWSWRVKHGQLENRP
For orientation: Ki means the equilibrium dissociation constant of an inhibitor or competing ligand from its target. Take `Cc1ncccc1C(C)(O)C#Cc1cc2c(cc1F)OCCn1cc(C(N)=O)nc1-2` (stereo not drawn) [Example 19, 8-fluoro-9-[3-hydroxy-3-(2-methyl-pyri-din-3-yl)-bul-1-ynyl]-4,5-dihydro-6-oxa-1,3a-diaza-benzo[e]azulene-2-carboxy-lic acid amide]: the Ki is over 5 µM. On the same count and under the same terms, under `CC(O)(C#Cc1ccc2c(c1)-c1nc(C(N)=O)cn1CCO2)CO` (stereo not drawn) [Example 20] stands 0.771 µM; under `CC(C)(O)C#Cc1ccc2c(c1)-c1nc(C(N)=O)sc1C(C)(O)CO2` (stereo not drawn) [Example 21, 4-hydroxy-9-(3-hydroxy-3-methyl-but-1-ynyl)-4-methyl-4,5-dihydro-6-oxa-3-thia-1-aza-benzo[e]azulene-2-carboxylic acid amide], 0.094 µM. For the molecule `CC(C)(O)C#Cc1ccc2c(c1)-c1nc(C(N)=O)sc1C(NC1CCC1)CO2` (stereo not drawn) [Example 22, 4-cyclobutylamino-9-(3-hydroxy-3-meth-yl-but-1-ynyl)-4,5-dihydro-6-oxa-3-thia-1-aza-benzo[e]azulene-2-carboxylic acid amide], the Ki amounted to 0.97 µM. Turning to `CN1CCC(O)(C#Cc2ccc3c(c2)-c2nc(C(N)=O)cn2CCO3)C1` (stereo not drawn) [Example 23, 9-(3-hydroxy-1-methyl-pyrrolidin-3-yl-ethynyl)-4,5-dihydro-6-oxa-1,3a-diaza-benzo[e]azulene-2-carboxylic acid amide], the Ki is over 5 µM. Turning to `CC(C)(O)C#Cc1cc2c(cc1F)OCCn1c-2nc(C(N)=O)c1Cc1ccccc1` [Example 24, 3-benzyl-8-fluoro-9-(3-hydroxy-3-meth-yl-but-1-ynyl)-4,5-dihydro-6-oxa-1,3a-diaza-benzo[e]azulene-2-carboxylic acid amide], the Ki was found to be 0.011 µM. As for `CC(C)(O)C#Cc1cc2c(cc1F)OCCn1c-2nc(C(N)=O)c1Cc1ccccc1F` [Example 25, 8-fluoro-3-(2-fluoro-benzyl)-9-(3-hydro-xy-3-methyl-but-1-ynyl)-4,5-dihydro-6-oxa-1,3a-diaza-benzol[e]azulene-2-car-boxylic acid amide], the Ki stood at 0.012 µM. `CC(=O)NC1COc2ccc(C#CC(C)(C)O)cc2-c2nc(C(N)=O)sc21` (stereo not drawn) [Example 26, 4-acetylamino-9-(3-hydroxy-3-methyl-but-1-ynyl)-4,5-dihydro-6-oxa-3-thia-1-aza-benzo[e]azulene-2-carboxylic acid amide]: the inhibition constant (Ki) was 0.21 µM. Same read-out and setting: under `CC(C)(O)C#Cc1ccc2c(c1)-c1nc(C(N)=O)sc1C(F)(F)CO2` [Example 27, 4,4-diriuoro-9-(3-hydroxy-3-methyl-but-1-ynyl)-4,5-dihydro-6-oxa-3-thia-1-aza-benzo[c]azulene-2-carboxylic acid amide] stands 0.057 µM. Still for that read-out and setting: under `Cc1nnc(C(C)(C#Cc2ccc3c(c2)-c2nc(C(N)=O)cn2CCO3)CO)[nH]1` (stereo not drawn) [Example 28, 9-[4-hydroxy-3-methyl-3-(5-methyl-4H-[1,24]triazol-3-yl)-but-1-ynyl]-4,5-di-hydro-6-oxa-1,3a-diaza-benzo[e]azulene-2-carboxylic acid amide] stands over 5 µM; under `NC(=O)c1cn2c(n1)-c1cc(C#CC3(O)CCNC3)ccc1OCC2` (stereo not drawn) [Example 29, 9-(3-hydroxy-pyrrolidin-3-ylethynyl)-4,5-dihydro-6-oxa-1,3a-diaza-benzo[e]azu-lene-2-carboxylic acid amide], over 5 µM. As for `NC(=O)c1cn2c(n1)-c1cc(C#CC3(O)CC4CCC(C3)N4)ccc1OCC2` (stereo not drawn) [Example 31, 9-(3-hydroxy-8-aza-bicyclo[3.2.1]oct-3-ylethynyl)-4,5-dihydro-6-oxa-1,3a-diaza-benzo[e]azulene-2-carboxylic acid amide], the Ki was over 5 µM. Take `CC(O)(C#Cc1cc2c(cc1F)OCCn1cc(C(N)=O)nc1-2)c1cc(CO)on1` (stereo not drawn) [Example 32, 8-fluoro-9-[3-hydroxy-3-(5-hydroxymeth-yl-isoxazol-3-yl)-but-1-ynyl]-4,5-dihy-dro-6-oxa-1,3a-diaza-benzo[c]azulene-2-carboxylic acid amide]: the inhibitory constant (Ki) is 0.002 µM.

Take `CC(C)(O)C#Cc1cc2c(cc1F)OCCn1c-2nc(C(N)=O)c1C#N` [Example 33, 3-cyano-8-fluoro-9-(3-hydroxy-3-methyl-but-1-ynyl)-4,5-dihydro-6-oxa-1,3a-diaza-benzo[e]azulene-2-carboxylic acid amide]: the Ki was determined as 0.172 µM. For the molecule `Cc1c(C(N)=O)nc2n1CCOc1cc(F)c(C#CC(C)(C)O)cc1-2` [Example 34, 8-fluoro-9-(3-hydroxy-3-methyl-but-1-ynyl)-3-methyl-4,5-dihydro-6-oxa-1,3a-diaza-benzo[e]azulene-2-carboxylic acid amide], the Ki came to 0.025 µM. As for `CC(C)(O)C#Cc1cc2c(cc1F)OCCn1c-2nc(C(N)=O)c1-c1cc[nH]n1` [Example 35, 8-fluoro-9-(3-hydroxy-3-methyl-but-1-ynyl)-3-(1H-pyrazol-3-yl)-4,5-dihydro-6-oxa-1,3a-diaza-benzo[e]azulene-2-car-boxylic acid amide], the Ki is 0.003 µM. As to `CC(C)(O)C#Cc1cc2c(cc1F)OCCn1c-2nc(C(N)=O)c1C1CC1` [Example 36, 3-cyclopropyl-8-fluoro-9-(3-hydroxy-3-methyl-but-1-ynyl)-4,5-dihydro-6-oxa-1,3a-diaza-benzo[e]azulene-2-carboxylic acid amide], the Ki amounted to 0.037 µM.

Take `NC(=O)c1cn2c(n1)-c1cc(C#CC3(O)CCCC3)ccc1C1CC2C1` [Example 37, 9-[2-(1-hydroxycyclopentyl)ethynyl]-2,5-diazatetra-cyclo[11.1.1.0^2,6.0^7,12]pen-tadeca-3,5,7,9,11-pentaene-4-carboxamide]: the Ki came to 0.003 µM. Take `Cc1cc([C@](C)(O)C#Cc2cc3c(cc2C)OCCn2cc(C(N)=O)nc2-3)no1` [Example 38, 9-[(R)-3-hydroxy-3-(5-methyl-isoxazol-3-yl)-but-1-ynyl]-8-methyl-4,5-dihydro-6-oxa-1,3a-diaza-benzo[e]azulene-2-car-boxylic acid amide]: the Ki was 0.062 µM. In the case of `CN(C)C(=O)CC1COc2ccc(C#CC(C)(C)O)cc2-c2nc(C(N)=O)sc21` (stereo not drawn) [Example 43, 4-dimethylcarbamoylmethyl-9-(3-hydro-xy-3-methyl-but-1-ynyl)-4,5-dihydro-6-oxa-3-thia-1-aza-benzo[e]azulene-2-car-boxylic acid amide], the inhibition constant Ki was 0.403 µM. With `CC(O)(C#Cc1cc2c(cc1F)OCCn1cc(C(N)=O)nc1-2)C(N)=O` (stereo not drawn) [Example 52, 9-(3-carbamoyl-3-hydroxy-but-1-ynyl)-8-fluoro-4,5-dihydro-6-oxa-1,3a-diaza-benzo[e]azulene-2-carboxylic acid amide], the Ki turned out to be 3.6 µM.

For `CC(O)(C#Cc1cc2c(cc1F)OCCn1cc(C(N)=O)nc1-2)C(F)(F)F` (stereo not drawn) [Example 56, 8-fluoro-9-(4,4,4-trifluoro-3-hydroxy-3-methyl-but-1-ynyl)-4,5-dihydro-6-oxa-1,3a-diaza-benzo[e]azulene-2-carboxylic acid amide], the inhibition constant (Ki) was 2 µM. On to `CC(C)(O)C#Cc1cc2c(cc1F)OCCn1c-2nc(C(N)=O)c1C(=O)NC1(C)COC1` [Example 60], for which the Ki is 0.025 µM.

The same assay, now with this note: read-out: NIK ADP-FP (Ki uM).
As to `CC(O)(C#Cc1cc2c(cc1F)OCCn1cc(C(N)=O)nc1-2)c1cncnc1` (stereo not drawn) [Example 18, 8-fluoro-9-(3-hydroxy-3-pyrimidin-5-yl-but-1-ynyl)-4,5-dihydro-6-oxa-1,3a-diaza-benzo[e]azulene-2-carboxylic acid amide], the inhibitory constant (Ki) was over 5 µM.

Values taken from patent US9034866B2 (Genentech, Inc., priority 2012, dated 2015).
